This note sets out measurements from patent US9271929B2, “Block copolymers and uses thereof” (École Polytechnique Fédérale de Lausanne (EPFL), priority 2008, dated 2016).

Data set [1] has as its system caco-2 cells (enterocytes) and lymphatic endothelial cells (LECs). Briefly: Transport in coculture model of gut lymphatic uptake. It is filed as in vitro ADME. Particulars: caco-2/LEC coculture. As for the experimental part: Given that PEG-PPS nanoparticles can survive harsh conditions such as gastric pH, we contemplated their transport in the gut lymphatics, determining their potential to be processed by mechanisms related to fat uptake in the gut. This was measured using a coculture model of caco-2 cells (enterocytes) and lymphatic endothelial cells (LECs), allowing full characterization of uptake, packaging, and transit (collectively referred to as transport). It was determined that the surface characteristics of PPS-based nanoparticles can be engineered to provide for effective transport: for example, particles on which about 10% of the terminal chain groups were substituted with a carboxyl functionality were transported at a level 5-fold higher than that of equivalent particles lacking a surface charge. Other surface charging moieties, such as sulfates and sulfones, are similarly effective after optimization.
A general note: Caco-2 monolayers are a common model of the intestinal barrier.

A short description of data set [2]: Encapsulation efficiency of small molecule pharmaceutical agents using excipient formulations. It counts as physicochemical. Particulars: PEG-PPS system. The method, then:
Samples used in Table 2 were prepared as follows. 10 mg of PEG-PPS was added to a 1.5 mL centrifuge tube with either 90 mg of PEG600 or DBU-HCl, and 2 mg of either paclitaxel or dexamethasone. This was heated at 95° C. for 15 min and mixed thoroughly. After cooling to RT, the blend was slowly diluted to 1 mL with distilled water. The free pharmaceutical agent was pelleted via centrifugation for 10 minutes at 10,000 g, and the pellet and supernatant were separately freeze dried, and analyzed in THF via gel permeation chromatography. Dexamethasone and paclitaxel results were quantified using a standard curve.

With dextran, the Uptake / transport result in data set [1] is given as “not well transported”.
Turning to `C[C@@H]1[C@H](O)[C@@H](C)/C=C/C=C/C=C/C=C/C=C/C=C/C=C/[C@H](O[C@@H]2O[C@H](C)[C@@H](O)[C@H](N)[C@@H]2O)C[C@@H]2O[C@](O)(C[C@@H](O)C[C@@H](O)[C@H](O)CC[C@@H](O)C[C@@H](O)CC(=O)O[C@H]1C)C[C@H](O)[C@H]2C(=O)O` [amphotericin B], in data set [2], the “Encapsulation, method of the invention versus solvent dispersion” value is listed as “more efficiently encapsulated via solvent dispersion”.
As for `CC(=O)O[C@H]1C(=O)[C@@]2(C)[C@H]([C@H](OC(=O)c3ccccc3)[C@]3(O)C[C@H](OC(=O)[C@H](O)[C@@H](NC(=O)c4ccccc4)c4ccccc4)C(C)=C1C3(C)C)[C@]1(OC(C)=O)CO[C@@H]1C[C@@H]2O` [paclitaxel], the “Encapsulation, method of the invention versus solvent dispersion” value in data set [2] is given as “more efficiently encapsulated via the method of the invention”.
With `CO[C@H]1C[C@@H]2CC[C@@H](C)[C@@](O)(O2)C(=O)C(=O)N2CCCC[C@H]2C(=O)O[C@H]([C@H](C)C[C@@H]2CC[C@@H](OCCO)[C@H](OC)C2)CC(=O)[C@H](C)/C=C(\C)[C@@H](O)[C@@H](OC)C(=O)[C@H](C)C[C@H](C)/C=C/C=C/C=C/1C` [everolimus], the “Encapsulation, method of the invention versus solvent dispersion” value in data set [2] was “efficiently encapsulated”.
